Here are results for 104 compounds from PubChem BioAssay AID1996.

Values after ≈ are worked out from the molar mass of the structure shown.

The solubility (kinetic) is the concentration staying in solution when a stock, usually in DMSO, is diluted into the medium.

For the data set the following is noted: buffer; pH 7.4; 200.0 µM.
Consider `COc1cccc(NC(=O)C2COc3ccccc3O2)c1` (centres undefined), for which the solubility (kinetic) was > 42.8 µg/mL.
With `COc1ccccc1C(=O)Nn1c(C)nc2ccccc2c1=O` the figure was > 46.4 µg/mL.
Next, `O=C(NCC(c1ccco1)N1CCOCC1)c1ccc([N+](=O)[O-])cc1` (centres undefined): > 51.8 µg/mL; `COCCn1c(SCC(=O)Nc2ccc3[nH]c(=O)[nH]c3c2)nc2ccccc21`: 19.4 µg/mL (≈ 48.8 µM).
Next, `O=C1Nc2ccccc2N2CCCC12` (centres undefined): 27.5 µg/mL (≈ 146 µM).
`NC(=O)COC(=O)c1cc([N+](=O)[O-])ccc1NCCO`: the solubility (kinetic) was > 42.5 µg/mL.
With `CO/N=C/C(NC(=O)c1ccc(C(F)(F)F)cc1)C(=O)OC` (centres undefined) the figure was > 47.7 µg/mL; with `COC(=O)c1ccsc1NC(=O)CN1CCN(c2ncccn2)CC1`, 4.1 µg/mL (≈ 11.3 µM); with `CN1CCCN(C(=O)COc2ccc(F)cc2F)CC1`, > 42.6 µg/mL.
Next, `CN1C(=O)c2ccccc2C(O)c2ccccc21` (centres undefined): 31.8 µg/mL (≈ 133 µM); `Cc1cc2[nH]c(=O)c(=O)[nH]c2cc1S(=O)(=O)NCc1ccccc1`: > 51.8 µg/mL; `CSc1nc(N)nc(C(C)C)n1`: > 27.6 µg/mL.
For `COc1ccc(OC)c(NC(=O)c2cccnc2)c1`, the kinetic solubility is > 38.7 µg/mL.
With `Cc1cc(=O)n2c(n1)SCOC2` the figure was > 27.6 µg/mL.
With `COc1ccc(NC(=S)Nc2ccc3nccnc3c2)cc1` the figure was 22.8 µg/mL (≈ 73.5 µM); with `Cc1cc(C(=O)N2CCC(C(=O)O)CC2)c(C(F)(F)F)o1`, > 45.8 µg/mL.
Next, `Cc1cc(NC(=O)CSc2ncc(C(F)(F)F)cc2Cl)no1`: 1.2 µg/mL (≈ 3.41 µM).
Compound `Cc1ccc2ncnc(-c3ccccc3)c2c1` displayed a solubility (kinetic) of 25.5 µg/mL (≈ 116 µM).
With `Cc1ccc(C(=O)Nc2ccc(Nc3ccccc3)cc2)cc1Br` the figure was < 0.4 µg/mL; with `CCOC(=O)N1CCN(C(=O)Nc2cccc3ccccc23)CC1`, > 49.1 µg/mL; with `Cc1cccn2c(=O)cc(COC(=O)C(C)Oc3ccccc3)nc12` (centres undefined), 46.8 µg/mL (≈ 138 µM).
`CC(C)(C)NC(=O)COC(=O)C1c2ccccc2Oc2ccccc21` registered a solubility (kinetic) of 48.9 µg/mL (≈ 144 µM).
With `Cc1csc(NC(=O)c2ccc(OCC3CCCO3)cc2)n1` (centres undefined) the figure was 21 µg/mL (≈ 66 µM); with `O=C1OCc2ccc(NC(=O)C3CC3)cc21`, > 32.6 µg/mL.
Next, `Oc1ccc(N2CCN(CC(O)c3ccccc3)CC2)cc1` (centres undefined): > 44.8 µg/mL.
With `Cc1cnc(=O)[nH]c1SCc1ccc(C(F)(F)F)cc1` the figure was 5.1 µg/mL (≈ 17 µM); with `CC(C)c1ccc(NC(=O)COc2ccc(C3SCCS3)cc2)cc1`, 4.1 µg/mL (≈ 11 µM).
On to `CO/N=C(\CCC(=O)O)c1cccs1`, for which the kinetic solubility is > 32 µg/mL.
Next, `CCOC(=O)CN1C(=O)C(=O)N(Cc2c(F)cccc2Cl)C1=O`: 45.6 µg/mL (≈ 133 µM); `CCCCNC(=O)[C@@H]1CSC2c3ccccc3C(=O)N21` (some centres undefined): > 43.6 µg/mL.
With `O=C(O)c1ccccc1NC(=O)N1CCOCC1`, the kinetic solubility is > 37.5 µg/mL.
`COc1cc(C(=O)OCC(=O)NC2CCCC2)cc(OC)c1OC`: the solubility (kinetic) is > 50.6 µg/mL.
As to `CCC(=O)c1c(NC(C)C)cc(C)oc1=O`, the solubility (kinetic) was > 33.5 µg/mL.
Next, `CC(=O)Nc1cccc(NC(=S)Nc2cccc(Cl)c2Cl)c1`: 26 µg/mL (≈ 73.4 µM).
With `CCOC(=O)C1(Cc2ccc(Cl)cc2)CCN(C2CCC2)CC1` the figure was 44 µg/mL (≈ 131 µM).
With `Fc1ccccc1CN1CCN(c2ccc(Cl)cc2)CC1`, the solubility (kinetic) was 1 µg/mL (≈ 3.28 µM).
With `O=C(Nc1cccc(S(=O)(=O)NC2=NCCC2)c1)c1ccc(F)cc1` the figure was > 54.2 µg/mL.
With `O=C(CCc1c[nH]c2ccccc12)NCCc1ccc(Cl)cc1` the figure was 4.2 µg/mL (≈ 12.9 µM).
With `Cc1ccc2[nH]c(C)c(CCNCc3cccnc3)c2c1.Cl` the figure was 47.1 µg/mL; with `COC(=O)c1ccc(S(=O)(=O)N2CCCCCC2)n1C`, > 45.1 µg/mL; with `O=C(NCCO)C(=O)Nc1cc2c3c(c1)CCC(=O)N3CCC2`, > 47.6 µg/mL.
On to `COc1ccc(CNC(=O)C2CC(C)=CCC2C(=O)O)cc1` (centres undefined), for which the solubility (kinetic) is > 45.5 µg/mL.
With `COC(=O)c1ccc(CN=C(NS(=O)(=O)c2ccccc2)c2ccccc2)cc1` the figure was > 61.3 µg/mL.
Next, `CC1(C)Cc2c(sc3c2c(N)nc(=S)n3Cc2ccccc2)CO1`: 2.3 µg/mL (≈ 6.43 µM).
As to `O=C1CC(c2ccc(Cl)cc2)CC(O)=C1C=NCCO` (centres undefined), the kinetic solubility is > 44.1 µg/mL.
On to `COc1ccccc1Cn1c(=O)oc2ccc(C)cc21`, for which the kinetic solubility came out at 2.9 µg/mL (≈ 10.8 µM).
With `CC(C)[C@H](NS(=O)(=O)c1ccccc1)C(=O)OCC(=O)Nc1cccc(S(N)(=O)=O)c1`, the kinetic solubility came out at 61.6 µg/mL (≈ 131 µM).
Next, `O=C(CN1CCN(c2ccccn2)CC1)Nc1ccc(F)cc1F`: > 49.9 µg/mL; `Cc1nc(SCC(=O)NC2CCCC2)[nH]c(=O)c1C`: 38.4 µg/mL (≈ 136 µM); `CCCn1cnc2cc(NCc3ccccc3O)ccc21`: 28.3 µg/mL (≈ 101 µM).
With `NC(=O)CCN1CCCCC1` the figure was > 23.4 µg/mL; with `COc1cc(OC)cc(C(=O)NCc2ccc3c(c2)OCO3)c1`, 46.1 µg/mL (≈ 146 µM).
With `Cc1ccc(-n2c(C)c(C)c3c(NCCO)ncnc32)cc1` the figure was > 44.5 µg/mL; with `Cc1ccc(C(=O)N2CCCCC2C(=O)O)cc1S(=O)(=O)N1CCCCC1` (centres undefined), > 59.2 µg/mL; with `CN(c1ccccc1)S(=O)(=O)c1cccc(NC(=O)CSc2nccc(=O)[nH]2)c1`, > 64.6 µg/mL.
Compound `Clc1ccc(-c2nc3cc(CN4CCCCC4)ccc3o2)cc1` came in with a solubility (kinetic) of 23.1 µg/mL (≈ 70.7 µM).
With `Cc1cccc(NC(=O)c2cc3ccccc3nc2C)c1` the figure was 29.3 µg/mL (≈ 106 µM).
With `O=C(NCCc1ccccc1)c1cccc(Br)c1` the figure was 10 µg/mL (≈ 32.9 µM); with `CC(C)CNC(=O)CCc1nc(-c2ccccc2)no1`, 37.7 µg/mL (≈ 138 µM).
Next, `O=C(CN1CCN(Cc2ccccc2)CC1)Nc1cccc(Cl)c1`: > 51.6 µg/mL.
Regarding `COc1ccc(NC(=S)Nc2cccc(C(F)(F)F)c2)c(C)c1`, the solubility (kinetic) turned out to be 8 µg/mL (≈ 23.5 µM).
In the case of `Cc1cc(NC(=O)CSc2nc3cc(C)c(C)cc3cc2C)no1`, the kinetic solubility is < 0.2 µg/mL.
With `O=CN1CCN(C(=S)Nc2ccc(OC(F)F)cc2)CC1` the figure was > 47.3 µg/mL.
Next, `N=c1oc2ccc(Cl)cc2cc1C(=O)Nc1ccc(F)cc1`: 1 µg/mL (≈ 3.16 µM).
Next, `c1ccc(Nc2nc(-c3ccccc3)ns2)cc1`: < 0.2 µg/mL.
As for `Br.COC(=O)c1ccc(CN2CCSC2=N)cc1`, the solubility (kinetic) stood at 49.6 µg/mL.
Next, `O=C1N/C(=N\c2ccccn2)SC1Cc1ccccc1Cl` (centres undefined): < 0.2 µg/mL; `CCOC(=O)N1CCC(NC(=O)c2cccs2)CC1`: 37.8 µg/mL (≈ 134 µM).
Next, `Cc1ccc(O)c(NC(=O)c2cc(-c3ccccc3Cl)on2)c1`: 0.4 µg/mL (≈ 1.22 µM); `CC(=O)NCCc1nc2ccccc2n1Cc1ccc(Cl)cc1`: > 49.2 µg/mL; `COCCNC(=S)N(CCc1c(C)[nH]c2ccccc12)Cc1ccco1`: 27.9 µg/mL (≈ 75.1 µM).
Next, `O=C(CNc1cc(S(=O)(=O)N2CCOCC2)ccc1N1CCOCC1)Nc1cccc(C(F)(F)F)c1`: 2.5 µg/mL (≈ 4.73 µM).
On to `CSCC(=O)Nc1cc(C)on1`, for which the kinetic solubility is > 27.9 µg/mL.
Next, `COc1ccc(OC)c(NC(=O)CCCc2ccccc2)c1`: 24.5 µg/mL (≈ 81.8 µM).
With `CC(Oc1ccccc1)C(=O)N1CCN=C1SCc1ccccc1F` (centres undefined) the figure was 11.4 µg/mL (≈ 31.8 µM).
As to `COc1cc2cc(NC(C)=O)cc(NCc3ccccc3)c2cc1OC`, the solubility (kinetic) was 4.2 µg/mL (≈ 12 µM).
Next, `Cc1[nH]c2ccccc2c1C(c1ccncc1)N1CCCCC1` (centres undefined): > 45.8 µg/mL; `CC(NC(=O)COC(=O)c1ccc(S(=O)(=O)N2CCOCC2)cc1)c1ccccc1` (centres undefined): 13.2 µg/mL (≈ 30.5 µM); `O=C1CCCC2=C1C(c1cccs1)CC(=O)N2c1ccc(F)cc1` (centres undefined): 40.7 µg/mL (≈ 119 µM).
In turn, `Cc1ccc(CNC(=O)c2cc(=O)c3ccc(C)cc3o2)cc1` yielded a kinetic solubility of 2.6 µg/mL (≈ 8.46 µM).
With `Nc1nc(Nc2ccccc2)nc(NC2CCCCC2)c1[N+](=O)[O-]` the figure was < 0.1 µg/mL; with `CCOC(=O)C1CCN(c2ncnc3cc(OC)c(OC)cc23)CC1`, 51.3 µg/mL (≈ 149 µM); with `Cc1ccc(NC(=O)CCCC(=O)OC(C)C(=O)c2ccccc2)cc1` (centres undefined), > 53 µg/mL.
Next, `CCC(=O)c1ccc(OCC(=O)N2CCN(CC(=O)Nc3ccc(C)cc3)CC2)cc1`: > 63.5 µg/mL; `CC(NCc1cccnc1)c1ccccc1` (centres undefined): > 31.8 µg/mL.
Next, `O=C1NC(=O)c2cc3ccccc3cc21`: 10.6 µg/mL (≈ 53.8 µM).
In the case of `Cn1cc(C(=O)C(=O)NC2CCCCC2)c2ccccc21`, the solubility (kinetic) was found to be 31.8 µg/mL (≈ 112 µM).
Next, `CC(O)CCC(=O)NNC(=S)Nc1ccccc1` (centres undefined): > 40.1 µg/mL.
With `O=C(/C=C/c1ccc(F)cc1)N1CCc2ccccc2C1` the figure was 12.5 µg/mL (≈ 44.4 µM); with `CCN(CC)C1CC(=O)N(c2cccc(Cl)c2)C1=O` (centres undefined), > 42.1 µg/mL.
With `O=C1CC(NCCc2ccccc2)C(=O)N1CCc1ccccc1` (centres undefined) the figure was 46.1 µg/mL (≈ 143 µM).
Consider `Cc1nn(CC(=O)O)c(C)c1NC(=O)c1cccs1`, for which the solubility (kinetic) is > 41.9 µg/mL.
Next, `COc1ccc(N=C2NC(=O)/C(=C/C=C/c3ccccc3)S2)cc1`: < 0.4 µg/mL.
With `COc1ccc(CN2C(=O)c3ccccc3C2=O)cc1C(=O)O` the figure was > 46.7 µg/mL; with `COC(=O)c1ccc(/C=C(\C#N)c2ccccn2)cc1`, 1.8 µg/mL (≈ 6.81 µM); with `CC1(C)C2CCC1(CS(=O)(=O)N1CCCC1C(=O)O)C(=O)C2` (centres undefined), > 49.4 µg/mL.
Next, `CCn1c(=O)n(CC)c2cc(NC(=O)c3ccccc3Cl)ccc21`: 50.4 µg/mL (≈ 147 µM); `COc1cc2c(cc1OC)CN(Cc1cc(OC)c(O)c(OC)c1)CC2`: 47.7 µg/mL (≈ 133 µM).
For the compound `CC(=O)c1cccc(NC(=O)N2CCC(NC(=O)c3ccco3)CC2)c1`, the kinetic solubility was determined as 51.6 µg/mL (≈ 145 µM). This solubility kinetic and that of the compound before are within 1.5-fold of each other.
Next, `COc1ccc(CC(=O)O/N=C(\N)Cc2ccc([N+](=O)[O-])cc2)cc1`: 5.6 µg/mL (≈ 16.3 µM); `O=C(CCc1ccccc1)Nc1ccccc1C(=O)N1CCOCC1`: > 50.8 µg/mL.
`COc1cccc(C(=O)NCC2(c3ccccc3)CCCC2)c1` came in with a solubility (kinetic) of 28.4 µg/mL (≈ 91.8 µM).
Next, `CCn1c(SCC(N)=O)nnc1-c1ccc2c(c1)OCO2`: > 46 µg/mL; `O=C(O)c1ccc(S(=O)(=O)N(Cc2ccccc2)Cc2ccccc2)cc1`: 19.5 µg/mL (≈ 51.1 µM).
